Agonistic activity data for 34 molecules are collected here from patent US8299111B2, “Compounds which modulate the CB2 receptor” (Boehringer Ingelheim International GmbH, priority 2006, dated 2012).

The target in the experiment is T1, human CB2R (Homo sapiens, UniProt P34972).
T1 construct: host or cells: CHO cells
T1 sequence (P34972 whole entry): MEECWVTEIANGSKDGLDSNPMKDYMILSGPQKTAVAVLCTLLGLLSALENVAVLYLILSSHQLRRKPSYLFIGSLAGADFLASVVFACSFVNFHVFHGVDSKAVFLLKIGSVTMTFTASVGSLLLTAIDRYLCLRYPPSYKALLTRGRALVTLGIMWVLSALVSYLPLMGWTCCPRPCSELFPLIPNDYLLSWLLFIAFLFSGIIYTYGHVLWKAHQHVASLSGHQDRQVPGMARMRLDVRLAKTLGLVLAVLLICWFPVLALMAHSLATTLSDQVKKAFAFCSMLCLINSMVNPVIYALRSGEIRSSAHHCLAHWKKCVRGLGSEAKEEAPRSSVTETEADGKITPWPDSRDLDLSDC
In words: CB2R mediated modulation of cAMP synthesis. To be noted: found through the use of the above described assays (binding and cAMP); CHO cells expressing human CB2R, forskolin-stimulated cAMP. Format: cell-based. On the procedure: B. CB2R Mediated Modulation of cAMP Synthesis:
CHO cells expressing human CB2R (Euroscreen) were plated at a density of 5000 cells per well in 384 well plates and incubated overnight at 37° C. After removing the media, the cells were treated with test compounds diluted in stimulation buffer containing 1 mM IBMX, 0.25% BSA and 10 uM Forskolin. The assay was incubated for 30 minutes at 37° C. Cells were lysed and the cAMP concentration was measured using DiscoverX -XS cAMP kit, following the manufacturer's protocol. In this setting, agonists will decrease forskolin induced production of cAMP while inverse agonists will further increase forskolin induced production of cAMP. EC50 of agonists were calculated as follows. The maximal amount of cAMP produced by forskolin compared to the level of cAMP inhibited by 1 uM CP55940 is defined as 100%. The EC50 value of each test compound was determined as the concentration at which 50% of the forskolin-stimulated cAMP synthesis was inhibited. Data was analyzed using a four-parameter logistic model. (Model 205 of XLfit 4.0).
Regarding `CC(C)(C)c1cc(NC(=O)C(C)(C)S(=O)(=O)c2cccc(F)c2)no1` [N-(5-tert-Butyl-isoxazol-3-yl)-2-(3-fluoro-benzenesulfonyl)-2-methyl-propionamide], the agonistic activity result is given as “agonistic activity”. Regarding `Cc1noc(NC(=O)C(C)(C)S(=O)(=O)c2ccc(Cl)cc2)c1-c1ccccc1` [2-(4-Chloro-benzenesulfonyl)-2-methyl-N-(3-methyl-4-phenyl-isoxazol-5-yl)-propionamide], the agonistic activity entry is reported as “agonistic activity”.

Consider `CC(C)(C(=O)Nc1cc(C(F)(F)F)ccn1)S(=O)(=O)c1ccc(C(F)(F)F)nc1` [2-Methyl-2-(6-trifluoromethyl-pyridine-3-sulfonyl)-N-(4-trifluoromethyl-pyridin-2-yl)-propionamide], for which the agonistic activity result is recorded as “agonistic activity”. The value for `CC(C)(C)c1ccc(NC(=O)C(C)(C)S(=O)(=O)c2ccc(Cl)cc2)cc1` [N-(4-tert-Butyl-phenyl)-2-(4-chloro-benzenesulfonyl)-2-methyl-propionamide] was “agonistic activity”.

For the molecule `Cn1nc(C2CCCCC2)cc1NC(=O)C(C)(C)S(=O)(=O)c1ccc(Cl)cc1` [2-(4-Chloro-benzenesulfonyl)-N-(5-cyclohexyl-2-methyl-2H-pyrazol-3-yl)-2-methyl-propionamide], the agonistic activity result was “agonistic activity”.

For the molecule `CC(C)(C)c1cc(NC(=O)C2(S(=O)(=O)c3ccc(C(F)(F)F)cc3)CC2)no1` [1-(4-Trifluoromethyl-benzenesulfonyl)-cyclopropanecarboxylic acid (5-tert-butyl-isoxazol-3-yl)-amide], the agonistic activity result was “agonistic activity”. Then `Cc1ccc(S(=O)(=O)C(C)(C)C(=O)Nc2nc(C(C)(C)C)cs2)cc1` [N-(4-tert-Butyl-thiazol-2-yl)-2-methyl-2-(toluene-4-sulfonyl)-propionamide], with “agonistic activity”; and `CC(C)C(C(=O)Nc1ccc(C(F)(F)F)cn1)S(=O)(=O)c1ccc(C(F)(F)F)cc1` (stereo not shown) [3-Methyl-2-(4-trifluoromethyl-benzenesulfonyl)-N-(5-trifluoromethyl-pyridin-2-yl)-butyramide], with “agonistic activity”; and `CC(C)(C(=O)Nc1cc2ccccc2cn1)S(=O)(=O)c1ccc(C(F)(F)F)nc1` [N-isoquinolin-3-yl-2-methyl-2-{[6-(trifluoromethyl)pyridin-3-yl]sulfonyl}propanamide], with “agonistic activity”. Then `CC(C)(C)c1cc(NC(=O)C(C)(C)S(=O)(=O)c2ccc(C(F)(F)F)nc2)on1` [N-(3-tert-butylisoxazol-5-yl)-2-methyl-2-{[6-(trifluoromethyl)pyridin-3-yl]sulfonyl}propanamide], with “agonistic activity”. The value for `Cc1c(-c2ccccc2)noc1NC(=O)C(C)(C)S(=O)(=O)c1ccc(Cl)cc1` [2-(4-Chloro-benzenesulfonyl)-2-methyl-N-(4-methyl-3-phenyl-isoxazol-5-yl)-propionamide] was “agonistic activity”; that for `CC(C)(C(=O)Nc1nc(-c2ccccc2)c(-c2ccccc2)s1)S(=O)(=O)c1ccc(Cl)cc1` [2-(4-Chloro-benzenesulfonyl)-N-(4,5-diphenyl-thiazol-2-yl)-2-methyl-propionamide] was “agonistic activity”. With `CC(C)(C)c1cc(NC(=O)C(C)(C)S(=O)(=O)c2cc(Cl)c(Cl)s2)no1` [N-(5-tert-Butyl-isoxazol-3-yl)-2-(4,5-dichloro-thiophene-2-sulfonyl)-2-methyl-propionamide], the agonistic activity entry was “agonistic activity”.

As to `CC(C)(C(=O)Nc1nc(-c2ccccc2)cs1)S(=O)(=O)c1ccc(Cl)cc1F` [2-[(4-chloro-2-fluorophenyl)sulfonyl]-2-methyl-N-(4-phenyl-1,3-thiazol-2-yl)propanamide], the agonistic activity result was “agonistic activity”. Then `CC(C)(C(=O)Nc1ccccc1C(F)(F)F)S(=O)(=O)c1ccc(Cl)cc1` [2-(4-Chloro-benzenesulfonyl)-2-methyl-N-(2-trifluoromethyl-phenyl)-propionamide], with “agonistic activity”. `CC(C)(C(=O)Nc1nc(-c2ccc(Cl)cc2)cs1)S(=O)(=O)c1ccccc1` [2-Benzenesulfonyl-N-[4-(4-chloro-phenyl)-thiazol-2-yl]-2-methyl-propionamide]: the agonistic activity entry is “agonistic activity”.

Regarding `CC(C)(C)c1cc(NC(=O)C(C)(C)S(=O)(=O)c2ccc[n+]([O-])c2)no1`, the agonistic activity entry is reported as “agonistic activity”. Then `Cn1nc(C(C)(C)C)cc1NC(=O)C(C)(C)S(=O)(=O)c1ccc(C(F)(F)F)nc1` [N-(5-tert-Butyl-2-methyl-2H-pyrazol-3-yl)-2-methyl-2-(6-trifluoromethyl-pyridine-3-sulfonyl)-propionamide], with “agonistic activity”; and `Cn1nc(C(C)(C)C)cc1NC(=O)C(C)(C)S(=O)(=O)c1ccc(F)cc1` [N-(5-tert-Butyl-2-methyl-2H-pyrazol-3-yl)-2-(4-fluoro-benzenesulfonyl)-2-methyl-propionamide], with “agonistic activity”. With `CC(C)(C(=O)Nc1nc(C(F)(F)F)cs1)S(=O)(=O)c1ccc(Cl)cc1F` [2-[(4-chloro-2-fluorophenyl)sulfonyl]-2-methyl-N-[4-(trifluoromethyl)-1,3-thiazol-2-yl]propanamide], the agonistic activity entry is “agonistic activity”.

For the molecule `COc1ccc(S(=O)(=O)C(C)(C)C(=O)Nc2nc(C)c(C(C)(C)C)s2)cc1` [N-(5-tert-Butyl-4-methyl-thiazol-2-yl)-2-(4-methoxy-benzenesulfonyl)-2-methyl-propionamide], the agonistic activity entry is listed as “agonistic activity”.

`CC(C)(C)c1ccc(NC(=O)C(C)(C)S(=O)(=O)c2ccc(Cl)cc2F)cc1` [N-(4-tert-butylphenyl)-2-[(4-chloro-2-fluorophenyl)sulfonyl]-2-methylpropanamide]: the agonistic activity entry is on record as “agonistic activity”. On to `CC(C)(C)c1cc(NC(=O)C(C)(C)S(=O)(=O)c2ccc(C(F)(F)F)nc2)no1` [N-(5-tert-Butyl-isoxazol-3-yl)-2-methyl-2-(6-trifluoromethyl-pyridine-3-sulfonyl)-propionamide], for which the agonistic activity result was “agonistic activity”. Then `Cn1nc(C(C)(C)C)cc1NC(=O)C(C)(C)S(=O)(=O)c1ccc(S(C)(=O)=O)cc1` [N-(3-tert-butyl-1-methyl-1H-pyrazol-5-yl)-2-methyl-2-{[4-(methylsulfonyl)phenyl]sulfonyl}propanamide], with “agonistic activity”; and `CC(C)(C)c1ccc(NC(=O)C(C)(C)S(=O)(=O)c2ccc(C(F)(F)F)nc2)cc1` [N-(4-tert-butylphenyl)-2-methyl-2-{[6-(trifluoromethyl)pyridin-3-yl]sulfonyl}propanamide], with “agonistic activity”; and `Cc1nc(NC(=O)C2(S(=O)(=O)c3ccc(C(F)(F)F)cc3)CCOCC2)sc1C(C)(C)C` [4-(4-Trifluoromethyl-benzenesulfonyl)-tetrahydro-pyran-4-carboxylic acid (5-tert-butyl-4-methyl-thiazol-2-yl)-amide], with “agonistic activity”. Then `CC(C)(C)c1csc(NC(=O)C(C)(C)S(=O)(=O)c2ccc(Cl)cc2F)n1` [N-(4-tert-Butyl-thiazol-2-yl)-2-(4-chloro-2-fluoro-benzenesulfonyl)-2-methyl-propionamide], with “agonistic activity”; and `CC(C)(C(=O)Nc1cccc2ccccc12)S(=O)(=O)c1ccc(S(C)(=O)=O)cc1` [2-(4-Methanesulfonyl-benzenesulfonyl)-2-methyl-N-naphthalen-1-yl-propionamide], with “agonistic activity”; and `CC(C)(C(=O)Nc1ccc(C(F)(F)F)cc1)S(=O)(=O)c1ccc(Cl)cc1F` [2-[(4-chloro-2-fluorophenyl)sulfonyl]-2-methyl-N-[4-(trifluoromethyl)phenyl]propanamide], with “agonistic activity”. The value for `CC(C)(C(=O)Nc1nc(-c2ccccc2)co1)S(=O)(=O)c1ccc(Cl)cc1` [2-(4-Chloro-benzenesulfonyl)-2-methyl-N-(4-phenyl-oxazol-2-yl)-propionamide] was “agonistic activity”.

Consider `COc1ccc(S(=O)(=O)C(C)(C)C(=O)Nc2cc(C(C)(C)C)nn2C)cc1F` [N-(5-tert-Butyl-2-methyl-2H-pyrazol-3-yl)-2-(3-fluoro-4-methoxy-benzenesulfonyl)-2-methyl-propionamide], for which the agonistic activity entry is “agonistic activity”.

On to `CC(C)(C)c1cc(NC(=O)C(C)(C)S(=O)(=O)c2ccc3ccccc3c2)no1` [N-(5-tert-Butyl-isoxazol-3-yl)-2-methyl-2-(naphthalene-2-sulfonyl)-propionamide], for which the agonistic activity entry was “agonistic activity”. The value for `CC(C)(C(=O)Nc1cccc(C(F)(F)F)n1)S(=O)(=O)c1ccc(Br)cc1` [2-(4-Bromo-benzenesulfonyl)-2-methyl-N-(6-trifluoromethyl-pyridin-2-yl)-propionamide] was “agonistic activity”; that for `Cc1c(-c2ccccc2)nn(C)c1NC(=O)C(C)(C)S(=O)(=O)c1ccc(C(F)(F)F)nc1` [N-(1,4-dimethyl-3-phenyl-1H-pyrazol-5-yl)-2-methyl-2-{[6-(trifluoromethyl)pyridin-3-yl]sulfonyl}propanamide] was “agonistic activity”.
